Source: US10206400B2, “Insecticidal compounds based on isoxazoline derivatives” (Syngenta Crop Protection LLC, priority 2009, dated 2019)

Key:
Type in all cases: in vivo
Spodoptera littoralis = Spodoptera littoralis (Egyptian cotton leafworm) leaf disc spray test; settings: foliar, 72 h, 200 ppm spray on cotton leaf discs, L1 larvae, mortality, feeding behavior, growth regulation 3 days after treatment
From the text: Cotton leaf discs were placed on agar in a 24-well microtiter plate and sprayed with test solutions at an application rate of 200 ppm. After drying, the leaf discs were infested with 5 L1 larvae. The samples were checked for mortality, feeding behavior, and growth regulation 3 days after treatment (DAT).

Heliothis virescens = Heliothis virescens (tobacco budworm) egg/artificial diet test; settings: 96 h, 200 ppm (concentration in well 18 ppm), eggs 0-24 h old on artificial diet, 4 days, egg mortality, larval mortality, growth regulation
Procedure: Eggs (0-24 h old) were placed in 24-well microtiter plate on artificial diet and treated with test solutions at an application rate of 200 ppm (concentration in well 18 ppm) by pipetting. After an incubation period of 4 days, samples were checked for egg mortality, larval mortality, and growth regulation.

Plutella xylostella = Plutella xylostella (diamond back moth) artificial diet test; settings: 144 h, 200 ppm (concentration in well 18 ppm), L2 larvae, 6 days, larval mortality, growth regulation
Procedure: (§1) 24-well microtiter plate (MTP) with artificial diet was treated with test solutions at an application rate of 200 ppm (concentration in well 18 ppm) by pipetting. After drying, the MTP's were infested with L2 larvae (7-12 per well). After an incubation period of 6 days, samples were checked for larval mortality and growth regulation.

Diabrotica balteata = Diabrotica balteata (corn root worm) artificial diet test; settings: 120 h, 200 ppm (concentration in well 18 ppm), L2 larvae, 5 days, larval mortality, growth regulation
Procedure: as §1, with “A 24-well” for “24-well”, “(6-10” for “(7-12”, “5” for “6”

Tetranychus urticae = Tetranychus urticae (two-spotted spider mite) leaf disc spray test; settings: foliar, 192 h, 200 ppm spray on bean leaf discs, mixed ages, 8 days, egg, larval and adult mortality
From the text: Bean leaf discs on agar in 24-well microtiter plates were sprayed with test solutions at an application rate of 200 ppm. After drying, the leaf discs are infested with mite populations of mixed ages. 8 days later, discs are checked for egg mortality, larval mortality, and adult mortality.

Myzus persicae = Myzus persicae (green peach aphid), systemic test; settings: 144 h, roots of infested pea seedlings in test solution, 6 days, mortality, special effects on the plant
From the text: Myzus persicae (Green peach aphid), systemic test: Roots of pea seedlings, infested with an aphid population of mixed ages, are placed directly in the test solutions at an application rate of 12.5 ppm. 6 days after introduction, samples are checked for mortality and special effects on the plant. The following compounds gave at least 80% control of Myzus persicae: A3, B2, B3, B5, B6, B7, B8, B11, B12, C1, C2, C3,C4, C5, C6, C7, D1, E1, E2, G1, G3, G5, G6, H1, H5, H6, H9, H10, H11, H12, H13, H14, H18, H19, H20, H24, H25, and H26.

Thrips tabaci = Thrips tabaci (onion thrips) leaf disc spray test; settings: foliar, 168 h, 200 ppm spray on sunflower leaf discs, mixed ages, 7 days, mortality
Procedure: [The procedure below names another target; the source lists this target under the same test.] Sunflower leaf discs were placed on agar in a 24-well microtiter plate and sprayed with test solutions at an application rate of 200 ppm. After drying, the leaf discs were infested with an […] population of mixed ages. After an incubation period of 7 days, samples were checked for mortality.

COc1ccc(N2CCC(CNC(=O)c3ccc(C4=NOC(c5cc(Cl)cc(Cl)c5)(C(F)(F)F)C4)cc3C)S2(=O)=O)cc1 (stereo not drawn) [Compound F6, 4-[5-(3,5-Dichloro-phenyl)-5-trifluoromethyl-4,5-dihydro-isoxazol-3-yl]-N-[2-(4-methoxy-phenyl)-1,1-dioxo-1 lambda*6*-isothiazolidin-5-ylmethyl]-2-methyl-benzamide]
≥ 80%: pest or weed control at 200 ppm (Spodoptera littoralis) | pest or weed control at 200 ppm (Heliothis virescens) | pest or weed control at 200 ppm (Plutella xylostella) | pest or weed control at 200 ppm (Diabrotica balteata) | pest or weed control at 200 ppm (Tetranychus urticae)

C#CCN1OC[C@@H](NC(=O)c2ccc(C3=NOC(c4cc(Cl)cc(Cl)c4)(C(F)(F)F)C3)cc2C)C1=O (stereo partly drawn) [Compound B3, 4-[5-(3,5-Dichloro-phenyl)-5-trifluoromethyl-4,5-dihydro-isoxazol-3-yl]-2-methyl-N-((R)-2-propargyl-3-oxo-isoxazolidin-4-yl)-benzamide]
≥ 80%: pest or weed control at 200 ppm (Spodoptera littoralis) | pest or weed control at 200 ppm (Heliothis virescens) | pest or weed control at 200 ppm (Plutella xylostella) | pest or weed control at 200 ppm (Diabrotica balteata) | pest or weed control at 12.5 ppm (Myzus persicae) | pest or weed control at 200 ppm (Thrips tabaci) | pest or weed control at 200 ppm (Tetranychus urticae)

Cc1cc(C2=NOC(c3cc(Cl)cc(Cl)c3)(C(F)(F)F)C2)ccc1C(=O)N[C@@H]1CONC1=O (stereo partly drawn) [Compound B1, 4-[5-(3,5-Dichloro-phenyl)-5-trifluoromethyl-4,5-dihydro-isoxazol-3-yl]-2-methyl-N-((R)-3-oxo-isoxazolidin-4-yl)-benzamide]
≥ 80%: pest or weed control at 200 ppm (Spodoptera littoralis) | pest or weed control at 200 ppm (Heliothis virescens) | pest or weed control at 200 ppm (Plutella xylostella) | pest or weed control at 200 ppm (Tetranychus urticae)

Cc1cc(C2=NOC(c3cc(Cl)cc(Cl)c3)(C(F)(F)F)C2)ccc1C(=O)NCC1CC(=O)N(CC(F)(F)F)O1 (stereo not drawn) [Compound F4, 4-[5-(3,5-Dichloro-phenyl)-5-trifluoromethyl-4,5-dihydro-isoxazol-3-yl]-2-methyl-N-[3-oxo-2-(1,1,1-trifluoroethyl)-isoxazolidin-5-ylmethyl]-benzamide]
≥ 80%: pest or weed control at 200 ppm (Spodoptera littoralis) | pest or weed control at 200 ppm (Heliothis virescens) | pest or weed control at 200 ppm (Plutella xylostella) | pest or weed control at 200 ppm (Diabrotica balteata) | pest or weed control at 200 ppm (Thrips tabaci) | pest or weed control at 200 ppm (Tetranychus urticae)

Cc1cc(C2=NOC(c3cc(Cl)cc(Cl)c3)(C(F)(F)F)C2)ccc1C(=O)NCC1CO[S+]([O-])O1 (stereo not drawn) [Compound F5, 4-[5-(3,5-dichlorophenyl)-5-(trifluoromethyl)-4H-isoxazol-3-yl]-2-methyl-N-[(2-oxido-1,3,2-dioxathiolan-2-ium-4-yl)methyl]benzamide]
≥ 80%: pest or weed control at 200 ppm (Spodoptera littoralis) | pest or weed control at 200 ppm (Heliothis virescens) | pest or weed control at 200 ppm (Plutella xylostella) | pest or weed control at 200 ppm (Diabrotica balteata) | pest or weed control at 200 ppm (Thrips tabaci) | pest or weed control at 200 ppm (Tetranychus urticae)

CCN1OC(CNC(=O)c2ccc(C3=NOC(c4cc(Cl)cc(Cl)c4)(C(F)(F)F)C3)cc2C)CC1=O (stereo not drawn) [Compound F3, 4-[5-(3,5-Dichloro-phenyl)-5-trifluoromethyl-4,5-dihydro-isoxazol-3-yl]-2-methyl-N-[3-oxo-2-ethyl-isoxazolidin-5-ylmethyl]-benzamide]
≥ 80%: pest or weed control at 200 ppm (Spodoptera littoralis) | pest or weed control at 200 ppm (Heliothis virescens) | pest or weed control at 200 ppm (Plutella xylostella) | pest or weed control at 200 ppm (Diabrotica balteata) | pest or weed control at 200 ppm (Thrips tabaci) | pest or weed control at 200 ppm (Tetranychus urticae)

Cc1cc(C2=NOC(c3cc(Cl)cc(Cl)c3)(C(F)(F)F)C2)ccc1C(=O)N[C@@H]1CON(CCO)C1=O (stereo partly drawn) [Compound B9, 4-[5-(3,5-Dichloro-phenyl)-5-trifluoromethyl-4,5-dihydro-isoxazol-3-yl]-2-methyl-N-((R)-2-(2-hydroxy-ethyl)-3-oxo-isoxazolidin-4-yl)-benzamide]
≥ 80%: pest or weed control at 200 ppm (Spodoptera littoralis) | pest or weed control at 200 ppm (Heliothis virescens) | pest or weed control at 200 ppm (Plutella xylostella) | pest or weed control at 200 ppm (Diabrotica balteata) | pest or weed control at 200 ppm (Thrips tabaci) | pest or weed control at 200 ppm (Tetranychus urticae)

Cc1cc(C2=NOC(c3cc(Cl)cc(Cl)c3)(C(F)(F)F)C2)ccc1C(=O)NCC1CCN(C)O1 (stereo not drawn) [Compound F2, N-(2-methyl-isoxazolidin-5-ylmethyl)-4-[5-(3,5-dichloro-phenyl)-5-trifluoromethyl-4,5-dihydro-isoxazol-3-yl]-2-methyl-benzamide]
≥ 80%: pest or weed control at 200 ppm (Spodoptera littoralis) | pest or weed control at 200 ppm (Heliothis virescens) | pest or weed control at 200 ppm (Plutella xylostella) | pest or weed control at 200 ppm (Diabrotica balteata) | pest or weed control at 200 ppm (Thrips tabaci) | pest or weed control at 200 ppm (Tetranychus urticae)

Cc1cc(C2=NOC(c3cc(Cl)cc(Cl)c3)(C(F)(F)F)C2)ccc1C(=O)NC1CSSC1 (stereo not drawn) [Compound A1, 4-[5-(3,5-Dichloro-phenyl)-5-trifluoromethyl-4,5-dihydro-isoxazol-3-yl]-N-[1,2]dithiolan-4-yl-2-methyl-benzamide]
≥ 80%: pest or weed control at 200 ppm (Spodoptera littoralis) | pest or weed control at 200 ppm (Heliothis virescens) | pest or weed control at 200 ppm (Plutella xylostella) | pest or weed control at 200 ppm (Diabrotica balteata) | pest or weed control at 200 ppm (Thrips tabaci)

Cc1cc(C2=NOC(c3cc(Cl)cc(Cl)c3)(C(F)(F)F)C2)ccc1C(=O)NCC1CCN(Cc2ccccc2)O1 (stereo not drawn) [Compound F1, N-(2-Benzyl-isoxazolidin-5-ylmethyl)-4-[5-(3,5-dichloro-phenyl)-5-trifluoromethyl-4,5-dihydro-isoxazol-3-yl]-2-methyl-benzamide]
≥ 80%: pest or weed control at 200 ppm (Spodoptera littoralis) | pest or weed control at 200 ppm (Heliothis virescens) | pest or weed control at 200 ppm (Plutella xylostella) | pest or weed control at 200 ppm (Diabrotica balteata) | pest or weed control at 200 ppm (Thrips tabaci) | pest or weed control at 200 ppm (Tetranychus urticae)

Cc1cc(C2=NOC(c3cc(Cl)cc(Cl)c3)(C(F)(F)F)C2)ccc1C(=O)N[C@@H]1CON(C2CCC2)C1=O (stereo partly drawn) [Compound B11, 4-[5-(3,5-Dichloro-phenyl)-5-trifluoromethyl-4,5-dihydro-isoxazol-3-yl]-2-methyl-N-((R)-2-(cyclobutyl)-3-oxo-isoxazolidin-4-yl)-benzamide]
≥ 80%: pest or weed control at 200 ppm (Spodoptera littoralis) | pest or weed control at 200 ppm (Plutella xylostella) | pest or weed control at 200 ppm (Diabrotica balteata) | pest or weed control at 12.5 ppm (Myzus persicae) | pest or weed control at 200 ppm (Thrips tabaci) | pest or weed control at 200 ppm (Tetranychus urticae)

Cc1cc(C2=NOC(c3cc(Cl)cc(Cl)c3)(C(F)(F)F)C2)ccc1C(=O)N[C@@H]1CON(Cc2ccccc2)C1=O (stereo partly drawn) [Compound B4, 4-[5-(3,5-Dichloro-phenyl)-5-trifluoromethyl-4,5-dihydro-isoxazol-3-yl]-2-methyl-N-((R)-2-benzyl-3-oxo-isoxazolidin-4-yl)-benzamide]
≥ 80%: pest or weed control at 200 ppm (Spodoptera littoralis) | pest or weed control at 200 ppm (Heliothis virescens) | pest or weed control at 200 ppm (Plutella xylostella) | pest or weed control at 200 ppm (Diabrotica balteata) | pest or weed control at 200 ppm (Thrips tabaci) | pest or weed control at 200 ppm (Tetranychus urticae)

Cc1cc(C2=NOC(c3cc(Cl)cc(Cl)c3)(C(F)(F)F)C2)ccc1C(=O)N[C@@H]1CON(C2CSC2)C1=O (stereo partly drawn) [Compound B10, 4-[5-(3,5-Dichloro-phenyl)-5-trifluoromethyl-4,5-dihydro-isoxazol-3-yl]-2-methyl-N-((R)-2-(thietan-3-yl)-3-oxo-isoxazolidin-4-yl)-benzamide]
≥ 80%: pest or weed control at 200 ppm (Spodoptera littoralis) | pest or weed control at 200 ppm (Heliothis virescens) | pest or weed control at 200 ppm (Plutella xylostella) | pest or weed control at 200 ppm (Diabrotica balteata) | pest or weed control at 200 ppm (Thrips tabaci) | pest or weed control at 200 ppm (Tetranychus urticae)
